Assay results published in PubChem BioAssay AID256 (DTP/NCI, 2004).
Where “and” joins values, the source holds several entries; their conditions need not be identical. Equal values may be shown once. Inconclusive results and toxic doses are left out. How the source made its calls: active means survival T/C of 150% or more; inactive means T/C below 125% in these data.

System: CD2F1 mice, L1210 leukemia ip, survival T/C
Assay: NCI In Vivo Anticancer Drug Screen. Data for tumor model L1210 Leukemia (intraperitoneal) in CD2F1 (CDF1) mice
Conditions: higher = longer survival
How it was run: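 Implant tumor; dose compound or vehicle; measure endpoint in both groups; report treated divided by control.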

[1] = endpoint: mean survival time, dose: 12.5 mg/kg/injection, schedule: Q01DX005 (ip), vehicle: distilled water + Tween-80
[2] = endpoint: mean survival time, dose: 25.0 mg/kg/injection, schedule: Q01DX005 (ip), vehicle: distilled water + Tween-80
[3] = endpoint: mean survival time, dose: 50.0 mg/kg/injection, schedule: Q01DX005 (ip), vehicle: distilled water + Tween-80
[4] = endpoint: mean survival time, dose: 100.0 mg/kg/injection, schedule: Q01DX005 (ip), vehicle: distilled water + Tween-80
[5] = endpoint: mean survival time, dose: 200.0 mg/kg/injection, schedule: Q01DX005 (ip), vehicle: distilled water + Tween-80
[6] = endpoint: mean survival time, dose: 100.0 mg/kg/injection, schedule: Q01DX001 (ip), vehicle: saline
[7] = endpoint: mean survival time, dose: 200.0 mg/kg/injection, schedule: Q01DX001 (ip), vehicle: saline
[8] = endpoint: mean survival time, dose: 400.0 mg/kg/injection, schedule: Q01DX001 (ip), vehicle: saline
[9] = endpoint: mean survival time, dose: 12.5 mg/kg/injection, schedule: Q01DX009 (ip), vehicle: saline with Tween-80
[10] = endpoint: mean survival time, dose: 25.0 mg/kg/injection, schedule: Q01DX009 (ip), vehicle: saline with Tween-80

Measured: T/C

Cc1c(-c2ccc(C3CCCCC3)cc2)nc2ccc(F)cc2c1C(=O)O
inactive: endpoint: median survival time, dose: 12.5 mg/kg/injection, schedule: Q01DX005 (ip), vehicle: Klucel (hydroxypropylcellulose) (HPC) 109 % of control | endpoint: median survival time, dose: 12.5 mg/kg/injection, schedule: Q01DX005 (ip), vehicle: sodium bicarbonate 114 % of control and 104 % of control | endpoint: median survival time, dose: 25.0 mg/kg/injection, schedule: Q01DX005 (ip), vehicle: Klucel (hydroxypropylcellulose) (HPC) 110 % of control | endpoint: median survival time, dose: 25.0 mg/kg/injection, schedule: Q01DX005 (ip), vehicle: sodium bicarbonate 122 % of control and 108 % of control | endpoint: median survival time, dose: 50.0 mg/kg/injection, schedule: Q01DX005 (ip), vehicle: sodium bicarbonate 123 % of control and 124 % of control and 104 % of control | endpoint: median survival time, dose: 100.0 mg/kg/injection, schedule: Q01DX005 (ip), vehicle: sodium bicarbonate 120 % of control and 109 % of control | endpoint: median survival time, dose: 400.0 mg/kg/injection, schedule: Q01DX009 (ip), vehicle: Klucel (hydroxypropylcellulose) (HPC) 89 % of control
active: endpoint: median survival time, dose: 100.0 mg/kg/injection, schedule: Q01DX009 (ip), vehicle: Klucel (hydroxypropylcellulose) (HPC) 182 % of control | endpoint: median survival time, dose: 200.0 mg/kg/injection, schedule: Q01DX009 (ip), vehicle: Klucel (hydroxypropylcellulose) (HPC) 183 % of control

CCOC(=O)C(C)Sc1n[nH]c(=O)[nH]c1=O (stereo not drawn)
inactive: [1] 96 % of control | [2] 96 % of control | [3] 96 % of control | [4] 92 % of control | [5] 94 % of control

CC(C)NCC(O)c1ccc(O)c(O)c1 (stereo not drawn)
inactive: endpoint: mean survival time, dose: 4.0 mg/kg/injection, schedule: Q01DX009 (ip), vehicle: saline 101 % of control | endpoint: mean survival time, dose: 8.0 mg/kg/injection, schedule: Q01DX009 (ip), vehicle: saline 107 % of control and 109 % of control | endpoint: mean survival time, dose: 16.0 mg/kg/injection, schedule: Q01DX001 (ip), vehicle: saline 96 % of control | endpoint: mean survival time, dose: 16.0 mg/kg/injection, schedule: Q01DX009 (ip), vehicle: saline 107 % of control and 113 % of control | endpoint: mean survival time, dose: 32.0 mg/kg/injection, schedule: Q01DX001 (ip), vehicle: saline 100 % of control | endpoint: mean survival time, dose: 32.0 mg/kg/injection, schedule: Q01DX009 (ip), vehicle: saline 104 % of control and 107 % of control | endpoint: mean survival time, dose: 50.0 mg/kg/injection, schedule: Q01DX001 (ip), vehicle: saline 95 % of control | endpoint: mean survival time, dose: 64.0 mg/kg/injection, schedule: Q01DX001 (ip), vehicle: saline 98 % of control and 102 % of control | endpoint: mean survival time, dose: 64.0 mg/kg/injection, schedule: Q01DX009 (ip), vehicle: saline 121 % of control | [6] 104 % of control | endpoint: mean survival time, dose: 100.0 mg/kg/injection, schedule: Q01DX009 (ip), vehicle: saline 108 % of control | endpoint: mean survival time, dose: 128.0 mg/kg/injection, schedule: Q01DX001 (ip), vehicle: saline 100 % of control and 105 % of control | endpoint: mean survival time, dose: 178.0 mg/kg/injection, schedule: Q01DX009 (ip), vehicle: saline 112 % of control | [7] 104 % of control | endpoint: mean survival time, dose: 200.0 mg/kg/injection, schedule: Q01DX009 (ip), vehicle: saline 111 % of control | endpoint: mean survival time, dose: 256.0 mg/kg/injection, schedule: Q01DX001 (ip), vehicle: other 102 % of control | endpoint: mean survival time, dose: 256.0 mg/kg/injection, schedule: Q01DX001 (ip), vehicle: saline 105 % of control | endpoint: mean survival time, dose: 266.0 mg/kg/injection, schedule: Q01DX009 (ip), vehicle: saline 120 % of control | [8] 110 % of control | endpoint: mean survival time, dose: 400.0 mg/kg/injection, schedule: Q01DX009 (ip), vehicle: saline 122 % of control | endpoint: mean survival time, dose: 600.0 mg/kg/injection, schedule: Q01DX009 (ip), vehicle: saline 112 % of control

COc1ccc(/C=C/C(=O)O)cc1
inactive: endpoint: mean survival time, dose: 100.0 mg/kg/injection, schedule: Q01DX001 (ip), vehicle: saline with Tween-80 102 % of control | endpoint: mean survival time, dose: 200.0 mg/kg/injection, schedule: Q01DX001 (ip), vehicle: saline with Tween-80 96 % of control | endpoint: mean survival time, dose: 400.0 mg/kg/injection, schedule: Q01DX001 (ip), vehicle: saline with Tween-80 97 % of control

C=Cc1c(C)c2cc3[nH]c(cc4nc(cc5nc(cc1[nH]2)C(C)=C5CCC(=O)O)C(CCC(=O)O)=C4C)c(C)c3C=C
inactive: [9] 88 % of control | [10] 88 % of control | endpoint: mean survival time, dose: 50.0 mg/kg/injection, schedule: Q01DX009 (ip), vehicle: saline with Tween-80 88 % of control

CC(Sc1ccccc1)C(=O)O (stereo not drawn)
inactive: [6] 98 % of control | [7] 102 % of control | [8] 98 % of control

CN(C)C1c2cc(Cl)ccc2-c2ccc(Cl)cc21
inactive: endpoint: mean survival time, dose: 50.0 mg/kg/injection, schedule: Q01DX001 (ip), vehicle: carboxymethylcellulose (CMC) 101 % of control | endpoint: mean survival time, dose: 100.0 mg/kg/injection, schedule: Q01DX001 (ip), vehicle: carboxymethylcellulose (CMC) 95 % of control | endpoint: mean survival time, dose: 200.0 mg/kg/injection, schedule: Q01DX001 (ip), vehicle: carboxymethylcellulose (CMC) 101 % of control | endpoint: mean survival time, dose: 400.0 mg/kg/injection, schedule: Q01DX001 (ip), vehicle: carboxymethylcellulose (CMC) 98 % of control

CC(=O)OCC(=O)[C@@]1(O)CC[C@H]2[C@@H]3CCC4=CC(=O)C=C[C@]4(C)[C@@]3(F)[C@@H](O)C[C@@]21C
inactive: endpoint: mean survival time, dose: 12.5 mg/kg/injection, schedule: Q04DX003 (ip), vehicle: saline 104 % of control | endpoint: mean survival time, dose: 25.0 mg/kg/injection, schedule: Q04DX003 (ip), vehicle: saline 104 % of control | endpoint: mean survival time, dose: 50.0 mg/kg/injection, schedule: Q04DX003 (ip), vehicle: saline 107 % of control

COC(=O)C1(C)CCC(=O)O1 (stereo not drawn)
inactive: endpoint: mean survival time, dose: 100.0 mg/kg/injection, schedule: Q04DX002 (ip), vehicle: saline with Tween-80 98 % of control | endpoint: mean survival time, dose: 200.0 mg/kg/injection, schedule: Q04DX002 (ip), vehicle: saline with Tween-80 98 % of control | endpoint: mean survival time, dose: 400.0 mg/kg/injection, schedule: Q04DX002 (ip), vehicle: saline with Tween-80 102 % of control

O=C(CN1CC1)NCCCCCCCCCNC(=O)CN1CC1
inactive: endpoint: mean survival time, dose: 22.0 mg/kg/injection, schedule: Q01DX001 (ip), vehicle: carboxymethylcellulose (CMC) 113 % of control | endpoint: mean survival time, dose: 33.0 mg/kg/injection, schedule: Q01DX001 (ip), vehicle: carboxymethylcellulose (CMC) 117 % of control

CCCC1CC[N-]CC1.CCCC1CC[N-]CC1.[Br][Pt+2]([Br])([Br])[Br]
inactive: endpoint: mean survival time, dose: 6.25 mg/kg/injection, schedule: Q01DX009 (ip), vehicle: water 94 % of control | endpoint: mean survival time, dose: 12.5 mg/kg/injection, schedule: Q01DX009 (ip), vehicle: water 96 % of control | endpoint: mean survival time, dose: 25.0 mg/kg/injection, schedule: Q01DX009 (ip), vehicle: water 97 % of control | endpoint: mean survival time, dose: 50.0 mg/kg/injection, schedule: Q01DX009 (ip), vehicle: water 91 % of control | endpoint: mean survival time, dose: 100.0 mg/kg/injection, schedule: Q04DX003 (ip), vehicle: water 90 % of control

COC1OC(CCl)C(Cl)C2OS(=O)(=O)OC12 (stereo not drawn)
inactive: [6] 97 % of control | [7] 100 % of control | [8] 96 % of control

c1ccc(N=N/C(=N/Nc2ccccc2)c2ccccc2)cc1
inactive: endpoint: mean survival time, dose: 6.25 mg/kg/injection, schedule: Q01DX009 (ip), vehicle: saline with Tween-80 104 % of control | [9] 101 % of control | [10] 98 % of control

O=C1[C@H]2CCC[C@H]2[C@H]2CCC[C@@H]12
inactive: endpoint: median survival time, dose: 6.25 mg/kg/injection, schedule: Q01DX009 (ip), vehicle: saline with Tween-80 98 % of control | endpoint: median survival time, dose: 12.5 mg/kg/injection, schedule: Q01DX009 (ip), vehicle: saline with Tween-80 106 % of control | endpoint: median survival time, dose: 25.0 mg/kg/injection, schedule: Q01DX009 (ip), vehicle: saline with Tween-80 98 % of control | endpoint: median survival time, dose: 50.0 mg/kg/injection, schedule: Q01DX009 (ip), vehicle: saline with Tween-80 101 % of control | endpoint: median survival time, dose: 100.0 mg/kg/injection, schedule: Q01DX009 (ip), vehicle: saline with Tween-80 106 % of control | endpoint: median survival time, dose: 200.0 mg/kg/injection, schedule: Q01DX009 (ip), vehicle: saline with Tween-80 97 % of control

COC(=O)c1c(CC#N)ncn1C1CC(OC(=O)c2ccc(C)cc2)C(COC(=O)c2ccc(C)cc2)O1 (stereo not drawn)
inactive: endpoint: median survival time, dose: 9.88 mg/kg/injection, schedule: Q01DX005 (ip), vehicle: water 101 % of control | endpoint: median survival time, dose: 19.75 mg/kg/injection, schedule: Q01DX005 (ip), vehicle: water 96 % of control | endpoint: median survival time, dose: 39.5 mg/kg/injection, schedule: Q01DX005 (ip), vehicle: water 96 % of control | endpoint: median survival time, dose: 79.0 mg/kg/injection, schedule: Q01DX005 (ip), vehicle: water 97 % of control | endpoint: median survival time, dose: 158.0 mg/kg/injection, schedule: Q01DX005 (ip), vehicle: water 100 % of control

CC1(C)OC2C(C3N(c4ccccc4)CCN3c3ccccc3)OC(n3ccc(=O)[nH]c3=O)C2O1 (stereo not drawn)
inactive: [1] 97 % of control | [2] 94 % of control | [3] 94 % of control | [4] 91 % of control | [5] 96 % of control
